Measured values published in the supplement of paper PMC10307832.

What was measured:
Test in all cases: relative viability (nuclei count vs DMSO), 5 days (fraction); higher = more cells survive
[1] = tested on: H3255
Outline: (§1)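 Lung cancer cell lines were seeded in 1536-well plates and dosed by pin tool the next day, with either a single drug or a fixed anchor-drug dose combined with five library-drug doses (not always all listed) spaced in √10 steps. Five days later, one step fixed the cells and stained their nuclei (final 0.05% Triton X-100, 1% formaldehyde, 1 ug/ml Hoechst), and nuclei were counted on 4× images. Relative viability is the nuclei count in treated wells divided by the count in vehicle wells, and each value is the median of duplicate plates.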

[2] = tested on: 201T
Outline: as §1

[3] = tested on: NCI-H2170
Outline: as §1

[4] = tested on: EPLC-272H
Outline: as §1

[5] = tested on: NCI-H1437
Outline: as §1

[6] = tested on: NCI-H1975
Outline: as §1

[7] = tested on: NCI-H2085
Outline: as §1

[8] = tested on: SW 1573
Outline: as §1

[9] = tested on: COR-L 105
Outline: as §1

[10] = tested on: LCLC-97TM1
Outline: as §1

[11] = tested on: NCI-H1666
Outline: as §1

[12] = tested on: PC-3 [JPC-3]
Outline: as §1

[13] = tested on: LOU-NH91
Outline: as §1

[14] = tested on: EKVX
Outline: as §1

[15] = tested on: NCI-H650
Outline: as §1

[16] = tested on: NCI-H647
Outline: as §1

[17] = tested on: HCC-827
Outline: as §1

[18] = tested on: NCI-H2342
Outline: as §1

[19] = tested on: LU99A
Outline: as §1

[20] = tested on: BEN
Outline: as §1

[21] = tested on: NCI-H2087
Outline: as §1

[22] = tested on: HCC-44
Outline: as §1

Nc1ccn([C@@H]2O[C@H](CO)[C@@H](O)[C@@H]2O)c(=O)n1 [Cytarabine] + CC(=O)c1c(C)c2cnc(Nc3ccc(N4CCNCC4)cn3)nc2n(C2CCCC2)c1=O [Palbociclib] (partner 0.5 µM)
relative viability ([1]; first compound 0.005 µM): 0.33 | relative viability ([1]; first compound 0.01581 µM): 0.32 | relative viability ([1]; first compound 0.05 µM): 0.281 | relative viability ([1]; first compound 0.1581 µM): 0.265 | relative viability ([1]; first compound 0.5 µM): 0.261 | relative viability ([2]; first compound 0.005 µM): 0.369 | relative viability ([2]; first compound 0.01581 µM): 0.335 | relative viability ([2]; first compound 0.05 µM): 0.356 | relative viability ([2]; first compound 0.1581 µM): 0.271 | relative viability ([2]; first compound 0.5 µM): 0.31 | relative viability ([3]; first compound 0.005 µM): 0.369 | relative viability ([3]; first compound 0.01581 µM): 0.266 | relative viability ([3]; first compound 0.05 µM): 0.26 | relative viability ([3]; first compound 0.1581 µM): 0.177 | relative viability ([3]; first compound 0.5 µM): 0.186 | relative viability ([4]; first compound 0.005 µM): 0.319 | relative viability ([4]; first compound 0.01581 µM): 0.29 | relative viability ([4]; first compound 0.05 µM): 0.281 | relative viability ([4]; first compound 0.1581 µM): 0.249 | relative viability ([4]; first compound 0.5 µM): 0.219 | relative viability ([5]; first compound 0.005 µM): 0.284 | relative viability ([5]; first compound 0.01581 µM): 0.28 | relative viability ([5]; first compound 0.05 µM): 0.237 | relative viability ([5]; first compound 0.1581 µM): 0.192 | relative viability ([5]; first compound 0.5 µM): 0.196 | relative viability ([6]; first compound 0.005 µM): 0.453 | relative viability ([6]; first compound 0.01581 µM): 0.574 | relative viability ([6]; first compound 0.05 µM): 0.46 | relative viability ([6]; first compound 0.1581 µM): 0.283 | relative viability ([6]; first compound 0.5 µM): 0.212 | relative viability ([7]; first compound 0.005 µM): 0.445 | relative viability ([7]; first compound 0.01581 µM): 0.425 | relative viability ([7]; first compound 0.05 µM): 0.393 | relative viability ([7]; first compound 0.1581 µM): 0.294 | relative viability ([7]; first compound 0.5 µM): 0.266 | relative viability ([8]; first compound 0.005 µM): 0.334 | relative viability ([8]; first compound 0.01581 µM): 0.407 | relative viability ([8]; first compound 0.05 µM): 0.281 | relative viability ([8]; first compound 0.1581 µM): 0.147 | relative viability ([8]; first compound 0.5 µM): 0.117 | relative viability ([9]; first compound 0.005 µM): 0.37 | relative viability ([9]; first compound 0.01581 µM): 0.37 | relative viability ([9]; first compound 0.05 µM): 0.27 | relative viability ([9]; first compound 0.1581 µM): 0.351 | relative viability ([9]; first compound 0.5 µM): 0.324 | relative viability ([10]; first compound 0.005 µM): 0.186 | relative viability ([10]; first compound 0.01581 µM): 0.135 | relative viability ([10]; first compound 0.05 µM): 0.198 | relative viability ([10]; first compound 0.1581 µM): 0.124 | relative viability ([10]; first compound 0.5 µM): 0.0884 | relative viability ([11]; first compound 0.005 µM): 0.611 | relative viability ([11]; first compound 0.01581 µM): 0.573 | relative viability ([11]; first compound 0.05 µM): 0.627 | relative viability ([11]; first compound 0.1581 µM): 0.511 | relative viability ([11]; first compound 0.5 µM): 0.575 | relative viability ([12]; first compound 0.005 µM): 0.546 | relative viability ([12]; first compound 0.01581 µM): 0.479 | relative viability ([12]; first compound 0.05 µM): 0.489 | relative viability ([12]; first compound 0.1581 µM): 0.459 | relative viability ([12]; first compound 0.5 µM): 0.463 | relative viability ([13]; first compound 0.005 µM): 0.478 | relative viability ([13]; first compound 0.01581 µM): 0.54 | relative viability ([13]; first compound 0.05 µM): 0.562 | relative viability ([13]; first compound 0.1581 µM): 0.432 | relative viability ([13]; first compound 0.5 µM): 0.412 | relative viability ([14]; first compound 0.005 µM): 0.366 | relative viability ([14]; first compound 0.01581 µM): 0.403 | relative viability ([14]; first compound 0.05 µM): 0.296 | relative viability ([14]; first compound 0.5 µM): 0.207 | relative viability ([15]; first compound 0.005 µM): 0.238 | relative viability ([15]; first compound 0.01581 µM): 0.227 | relative viability ([15]; first compound 0.05 µM): 0.159 | relative viability ([15]; first compound 0.1581 µM): 0.157 | relative viability ([15]; first compound 0.5 µM): 0.175 | relative viability ([16]; first compound 0.005 µM): 0.316 | relative viability ([16]; first compound 0.01581 µM): 0.206 | relative viability ([16]; first compound 0.05 µM): 0.207 | relative viability ([16]; first compound 0.1581 µM): 0.0933 | relative viability ([16]; first compound 0.5 µM): 0.0634 | relative viability ([17]; first compound 0.005 µM): 0.347 | relative viability ([17]; first compound 0.01581 µM): 0.317 | relative viability ([17]; first compound 0.05 µM): 0.19 | relative viability ([17]; first compound 0.1581 µM): 0.173 | relative viability ([17]; first compound 0.5 µM): 0.14 | relative viability ([18]; first compound 0.005 µM): 0.525 | relative viability ([18]; first compound 0.01581 µM): 0.557 | relative viability ([18]; first compound 0.05 µM): 0.502 | relative viability ([18]; first compound 0.1581 µM): 0.467 | relative viability ([18]; first compound 0.5 µM): 0.435 | relative viability ([19]; first compound 0.005 µM): 0.409 | relative viability ([19]; first compound 0.01581 µM): 0.399 | relative viability ([19]; first compound 0.05 µM): 0.391 | relative viability ([19]; first compound 0.1581 µM): 0.388 | relative viability ([19]; first compound 0.5 µM): 0.288 | relative viability ([20]; first compound 0.005 µM): 0.481 | relative viability ([20]; first compound 0.01581 µM): 0.431 | relative viability ([20]; first compound 0.05 µM): 0.458 | relative viability ([20]; first compound 0.1581 µM): 0.377 | relative viability ([20]; first compound 0.5 µM): 0.286 | relative viability ([21]; first compound 0.005 µM): 0.23 | relative viability ([21]; first compound 0.01581 µM): 0.215 | relative viability ([21]; first compound 0.05 µM): 0.231 | relative viability ([21]; first compound 0.1581 µM): 0.167 | relative viability ([21]; first compound 0.5 µM): 0.205 | relative viability ([22]; first compound 0.005 µM): 0.997 | relative viability ([22]; first compound 0.01581 µM): 0.942 | relative viability ([22]; first compound 0.05 µM): 0.911 | relative viability ([22]; first compound 0.1581 µM): 0.806 | relative viability ([22]; first compound 0.5 µM): 0.812
